Results reported in patent US20250345329A1, “HETEROARYL DERIVATIVE COMPOUND AND USES THEREOF” (VORONOI, INC., priority 2022, published 2025).

Tested on: Ba/F3 expressing EGFR Del19/T790M/C797S mutations
Test: Inhibitory activity on proliferation of Ba/F3 cell overexpressing EGFR C797S (Cell Titer-Glo)
Assay type: cell-based
Conditions: Mus musculus, BaF3; 72 hours treatment, cell growth rate vs control; read-out: Ba/F3 (EGFR DTC) GI50
Description: <Experimental Example 2> Evaluation of Inhibitory Activity on Proliferation of Ba/F3 Cell Overexpressing EGFR C797S
The following experiments were performed to evaluate the inhibitory activity of the compounds according to the present invention on the proliferation of Ba/F3 expressing EGFR Del19/T790M/C797S mutations.
Ba/F3 cells were cultured in RPMI-1640 medium supplemented with 10% fetal bovine serum (FBS), and 3000 cells were seeded into each well of a white clear bottom 96 well plate (Corning) 24 hours prior to compound treatment. The compounds were diluted in dimethyl sulfoxide (3-fold dilution, total of 12 concentrations) and injected at 1 μl each so that the final concentration was […] to 5 μM. After 72 hours post treatment with compounds, living cells were reacted in a 37° C., CO2 incubator for […], followed by 10 minutes at room temperature using Cell Titer-Glo luminescent cell-viability reagent (Promega), and the luminescence intensity thereof was measured using a reader (SynergyNeo2, Biotek). The result values were calculated as a cell growth rate (%) compared to the control group. GI50 values were calculated using the GraphPad Prism version 8.4.3 (GraphPad software Inc., San Diego) program.

GI50 [nM]	Structure (SMILES)
500 to 5000	CO[C@H]1CCN(c2nccc(Nc3cc(NC(C)C)c(C(=O)N(C)CCN(C)C)cn3)n2)C[C@H]1F (relative stereo) [Example 29, N-(2-(dimethylamino)ethyl)-6-((2-(cis-3-fluoro-4-methoxypiperidin-1-yl)pyrimidin-4-yl)amino)-4-(isopropylamino)-N-methylnicotinamide]
500 to 5000	COCCN(C)C(=O)c1cnc(Nc2ccnc(N3CC[C@H](OC)[C@H](F)C3)n2)cc1NC(C)C (relative stereo) [Example 30, 6-((2-(cis-3-fluoro-4-methoxypiperidin-1-yl)pyrimidin-4-yl)amino)-4-(isopropylamino)-N-(2-methoxyethyl)-N-methylnicotinamide]
500 to 5000	CO[C@H]1CCN(c2nccc(Nc3cc(NC(C)C)c(C(=O)Nc4cc(N5CCN(C)CC5)cc(C(F)(F)F)c4)cn3)n2)C[C@H]1F [Example 24, 6-((2-(cis-3-fluoro-4-methoxypiperidin-1-yl)pyrimidin-4-yl)amino)-4-(isopropylamino)-N-(3-(4-methylpiperazin-1-yl)-5-(trifluoromethyl)phe-nyl)nicotinamide]
500 to 5000	COCCN(C)C(=O)c1cnc(Nc2ccnc(-c3cnn(S(=O)(=O)C4CC4)c3)n2)cc1NC(C)C [Example 27, 6-((2-(1-(cyclopropylsulfonyl)-1H-pyrazol-4-yl)pyrimidin-4-yl)amino)-4-(isopropylamino)-N-(2-methoxyethyl)-N-methylnicotinamide]
500 to 5000	CO[C@H]1CCN(c2nccc(Nc3cc(NC(C)C)c(C(=O)Nc4cnn(S(=O)(=O)C5CC5)c4)cn3)n2)C[C@H]1F [Example 33, N-(1-(cyclopropylsulfonyl)-1H-pyrazol-4-yl)-6-((2-(cis-3-fluoro-4-methoxypiperidin-1-yl)pyrimidin-4-yl)amino)-4-(isopropylamino)nico-tinamide]
500 to 5000	CC(C)Nc1cc(Nc2ccnc(-c3cnn(C(=O)C4CC4)c3)n2)ncc1C(=O)NCC#N [Example 87, N-(cyanomethyl)-6-((2-(1-(cyclo-propanecarbonyl)-1H-pyrazol-4-yl)pyrimidin-4-yl)amino)-4-(isopropylamino)nico-tinamide]
< 500	C[C@H]1CCOc2c(cnn2C)-c2nccc(n2)Nc2cc(c(C(=O)NCCCC(F)(F)F)cn2)N1 [Example 88, (S)-1^1,6-dimethyl-N-(4,4,4-trifluorobutyl)-1^1H-9-oxa-3,5-diaza-2(2,4)-pyrimidina-4(2,4)-pyridina-1(4,5)-pyrazolacyclo-nonaphane-4^5-carboxamide]
< 500	C[C@H]1CCOc2c(cnn2C)-c2nccc(n2)Nc2cc(c(C(=O)NCCC(F)(F)F)cn2)N1 [Example 89, (S)-1^1,6-dimethyl-N-(3,3,3-trifluoropropyl)-1^1H-9-oxa-3,5-diaza-2(2,4)-pyrimidina-4(2,4)-pyridina-1(4,5)-pyrazolacyclo-nonaphane-4^5-carboxamide]
500 to 5000	CO[C@H]1CCN(c2nccc(Nc3cc(NC(C)C)c(C(=O)NCC4CCCC4)cn3)n2)C[C@H]1F [Example 91, N-(cyclopentylmethyl)-6-((2-(cis-3-fluoro-4-methoxypiperidin-1-yl)pyrimidin-4-yl)amino)-4-(isopropylamino)nico-tinamide]
500 to 5000	CC(C)Nc1nc(Nc2ccnc(-c3cnn(S(=O)(=O)C4CC4)c3)c2)ncc1C(=O)NCCCC(F)(F)F [Example 92, 2-((2-(1-(cyclopropylsulfonyl)-1H-pyrazol-4-yl)pyridin-4-yl)amino)-4-(isopropylamino)-N-(4,4,4-trifluorobutyl)pyrimi-din-5-carboxamide]
500 to 5000	CO[C@H]1CCN(c2cc(Nc3ncc(C(=O)NCCCC(F)(F)F)c(NC(C)C)n3)ccn2)C[C@H]1F [Example 93, 2-((2-((3R,4S)-3-fluoro-4-methoxypiperidin-1-yl)pyridin-4-yl)amino)-4-(isopropylamino)-N-(4,4,4-trifluorobutyl)pyrimi-dine-5-carboxamide]
500 to 5000	CO[C@H]1CCN(c2nccc(Nc3cc(NC(C)C)c(C(=O)NCCS(C)(=O)=O)cn3)n2)C[C@H]1F [Example 94, 6-((2-((3R,4S)-3-fluoro-4-methoxypiperidin-1-yl)pyrimidin-4-yl)amino)-4-(isopropylamino)-N-(2-(methylsulfonyl)ethyl) nicotinamide]
500 to 5000	CO[C@H]1CCN(c2cc(Nc3ncc(C(=O)NCCS(C)(=O)=O)c(NC(C)C)n3)ccn2)C[C@H]1F [Example 95, 2-((2-((3R,4S)-3-fluoro-4-methoxypiperidin-1-yl)pyridin-4-yl)amino)-4-(isopropylamino)-N-(2-(methylsulfonyl)ethyl) pyrimidin-5-carboxamide]
< 500	C[C@H]1CCOc2c(cnn2C)-c2nccc(n2)Nc2cc(c(C(=O)NCC(F)(F)C(F)(F)F)cn2)N1 [Example 103, (S)-1^1,6-dimethyl-N-(2,2,3,3,3-pentafluoropropyl)-1^1H-9-oxa-3,5-diaza-2(2,4)-pyrimidina-4(2,4)-pyridina-1(4.,5)-pyrazolacyclo-nonaphane-4^5-carboxamide]
< 500	C[C@H]1CCOc2c(cnn2C)-c2nccc(n2)Nc2cc(c(C(=O)Nc3cc(N4CCN(C)CC4)cc(N(C)S(C)(=O)=O)c3)cn2)N1 [Example 114, (S)-1^1,6-dimethyl-N-(3-(N-methyl-methylsulfonami-do)-5-(4-methylpiperazin-1-yl)phenyl)-1^1H-9-oxa-3,5-diaza-2(2,4)-pyrimidina-4(2,4)-pyridina-1(4,5)-pyrazolacyclo-nonaphane-4^5-carboxamide]
< 500	CC(C)S(=O)(=O)CC1CN(C(=O)c2cnc3cc2N[C@@H](C)CCOc2c(cnn2C)-c2nccc(n2)N3)C1 [Example 121, (S)-(1^1,6-methyl-1^1H-9-oxa-3,5-diaza-2(2,4)-pyrimidina-4(2,4)-pyridina-1(4,5)-pyrazolacyclo-nonaphane-4^5-yl)(3-((isopropylsulfonyl)methyl)azetidin-1-yl)methanone]
< 500	C[C@H]1CCOc2c(cnn2C)-c2cc(ccn2)Nc2cc(c(C(=O)NCCC(F)(F)F)cn2)N1 [Example 123, (S)-1^1,6-dimethyl-N-(3,3,3-trifluoropropyl)-1^1H-9-oxa-3,5-diaza-2,4(2,4)-dipyridina-1(4,5)-pyrazolacyclo-nonaphane-4^5-carboxamide]
500 to 5000	Cc1cc2cc(n1)-c1cnn(C)c1OCC[C@H](C)Nc1cc(ncc1C(=O)NCCC(F)(F)F)N2 [Example 124, (S)-1^1,2^6,6-trimethyl-N-(3,3,3-trifluoropropyl)-1^1H-9-oxa-3,5-diaza-2,4(2,4)-dipyridina-1(4,5)-pyrazolacyclo-nonaphane-4^5-carboxamide]
500 to 5000	C[C@H]1CCOc2c(cnn2C)-c2nccc(n2)Nc2cc(c(C(=O)Nc3cccc(CS(C)(=O)=O)c3)cn2)N1 [Example 125, (S)-1^1,6-dimethyl-N-(3-((methyl-sulfonyl)meth-yl)phenyl)-1^1H-9-oxa-3,5-diaza-2(2,4)-pyrimidina-4(2,4)-pyridina-1(4,5)-pyrazolacyclo-nonaphane-4^5-carboxamide]
< 500	CC(C)Nc1cc(Nc2ccnc(-c3cnn(S(=O)(=O)C4CC4)c3)n2)ncc1C(=O)N1CC(CS(=O)(=O)C(C)C)C1 [Example 130, (6-((2-(1-(cyclopropylsulfonyl)-1H-pyrazol-4-yl)pyrimidin-4-yl)amino)-4-(isopropylamino)pyri-din-3-yl)(3-((isopropylsulfonyl)methyl)azetidin-1-yl)methanone]
